Read-outs that look alike come from different tables or passages of the source.

Targets include CAMKK1 (Homo sapiens, UniProt Q8N5S9); DAPK1 (Homo sapiens, UniProt P53355); EGFR (Homo sapiens, UniProt P00533); LRRK2(G2019S) (Homo sapiens, UniProt Q5S007, G2019S); MAP4K4 (Homo sapiens, UniProt O95819); STK39 (Homo sapiens, UniProt Q9UEW8).
Holding throughout (experiment): biochemical
What all share (design): DiscoveRx KINOMEscan active site-directed competition binding; percent of control kinase bound to immobilised ligand

Assay [1] has as its target T1, ABL1(Q252H)-phosphorylated (Homo sapiens, UniProt P00519, Q252H).
T1 construct: phosphorylated

The next assay has as its target T2, FLT3-autoinhibited (Homo sapiens, UniProt P36888).
T2 sequence (P36888 1-993): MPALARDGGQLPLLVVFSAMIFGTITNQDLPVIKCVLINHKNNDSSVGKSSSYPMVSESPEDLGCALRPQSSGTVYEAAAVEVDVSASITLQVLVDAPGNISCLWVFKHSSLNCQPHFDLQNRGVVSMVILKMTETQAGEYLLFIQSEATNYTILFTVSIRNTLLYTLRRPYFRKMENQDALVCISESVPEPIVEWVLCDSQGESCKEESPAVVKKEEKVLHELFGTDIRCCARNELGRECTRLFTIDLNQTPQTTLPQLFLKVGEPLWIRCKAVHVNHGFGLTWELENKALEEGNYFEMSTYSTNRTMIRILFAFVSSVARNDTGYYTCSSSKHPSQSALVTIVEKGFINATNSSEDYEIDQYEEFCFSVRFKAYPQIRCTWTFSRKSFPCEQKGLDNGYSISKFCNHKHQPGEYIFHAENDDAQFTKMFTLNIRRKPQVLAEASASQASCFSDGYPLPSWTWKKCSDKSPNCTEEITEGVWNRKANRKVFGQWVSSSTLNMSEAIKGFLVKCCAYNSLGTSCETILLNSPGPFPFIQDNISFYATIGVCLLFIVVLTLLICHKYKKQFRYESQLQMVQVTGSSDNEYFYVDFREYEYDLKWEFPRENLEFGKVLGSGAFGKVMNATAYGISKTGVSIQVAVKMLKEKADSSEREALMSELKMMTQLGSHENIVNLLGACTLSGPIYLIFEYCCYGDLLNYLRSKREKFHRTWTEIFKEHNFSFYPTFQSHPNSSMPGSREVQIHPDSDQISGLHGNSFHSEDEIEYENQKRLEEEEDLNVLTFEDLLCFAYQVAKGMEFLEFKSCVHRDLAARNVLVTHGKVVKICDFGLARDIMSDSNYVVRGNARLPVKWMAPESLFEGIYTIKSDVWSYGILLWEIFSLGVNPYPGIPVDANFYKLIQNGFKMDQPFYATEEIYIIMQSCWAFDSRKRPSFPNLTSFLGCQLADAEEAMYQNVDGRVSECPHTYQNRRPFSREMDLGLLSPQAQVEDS

Another assay deals with T3, IRAK4 (Homo sapiens, UniProt Q9NWZ3).
T3 sequence (Q9NWZ3 1-460): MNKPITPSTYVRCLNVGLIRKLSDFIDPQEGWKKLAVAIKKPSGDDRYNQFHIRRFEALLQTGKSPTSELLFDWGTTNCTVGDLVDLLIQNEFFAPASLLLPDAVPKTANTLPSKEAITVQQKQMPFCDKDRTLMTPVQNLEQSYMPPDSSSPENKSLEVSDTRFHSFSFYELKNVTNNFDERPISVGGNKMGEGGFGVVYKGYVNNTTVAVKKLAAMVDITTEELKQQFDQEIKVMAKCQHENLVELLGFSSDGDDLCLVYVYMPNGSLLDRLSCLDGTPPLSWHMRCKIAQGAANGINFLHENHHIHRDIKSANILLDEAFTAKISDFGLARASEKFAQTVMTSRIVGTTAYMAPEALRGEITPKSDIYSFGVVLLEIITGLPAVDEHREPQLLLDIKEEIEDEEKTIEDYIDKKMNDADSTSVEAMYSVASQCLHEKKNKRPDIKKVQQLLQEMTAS

The target of the next assay is T4, MINK (Homo sapiens, UniProt Q8N4C8).
T4 construct: gene MINK1

For the next assay, the target named is T5, MRCKB (Homo sapiens, UniProt Q9Y5S2).
T5 construct: gene CDC42BPB

The next assay addresses T6, p38-alpha (Homo sapiens, UniProt Q16539).
T6 construct: gene MAPK14

Where [2] appears, read: read-out: Niraparib (MK-4827) / %Ctrl @ 10000nM.
Where [3] appears, read: read-out: Talazoparib (BMN 673) / %Ctrl @ 10000nM.
[4] abbreviates: read-out: Rucaparib / %Ctrl @ 10000nM, binding competition, % of control.
Setting [5] is: read-out: Olaparib / %Ctrl @ 10000nM.

Chain of LRRK2(G2019S) (Q5S007 whole entry G2019S): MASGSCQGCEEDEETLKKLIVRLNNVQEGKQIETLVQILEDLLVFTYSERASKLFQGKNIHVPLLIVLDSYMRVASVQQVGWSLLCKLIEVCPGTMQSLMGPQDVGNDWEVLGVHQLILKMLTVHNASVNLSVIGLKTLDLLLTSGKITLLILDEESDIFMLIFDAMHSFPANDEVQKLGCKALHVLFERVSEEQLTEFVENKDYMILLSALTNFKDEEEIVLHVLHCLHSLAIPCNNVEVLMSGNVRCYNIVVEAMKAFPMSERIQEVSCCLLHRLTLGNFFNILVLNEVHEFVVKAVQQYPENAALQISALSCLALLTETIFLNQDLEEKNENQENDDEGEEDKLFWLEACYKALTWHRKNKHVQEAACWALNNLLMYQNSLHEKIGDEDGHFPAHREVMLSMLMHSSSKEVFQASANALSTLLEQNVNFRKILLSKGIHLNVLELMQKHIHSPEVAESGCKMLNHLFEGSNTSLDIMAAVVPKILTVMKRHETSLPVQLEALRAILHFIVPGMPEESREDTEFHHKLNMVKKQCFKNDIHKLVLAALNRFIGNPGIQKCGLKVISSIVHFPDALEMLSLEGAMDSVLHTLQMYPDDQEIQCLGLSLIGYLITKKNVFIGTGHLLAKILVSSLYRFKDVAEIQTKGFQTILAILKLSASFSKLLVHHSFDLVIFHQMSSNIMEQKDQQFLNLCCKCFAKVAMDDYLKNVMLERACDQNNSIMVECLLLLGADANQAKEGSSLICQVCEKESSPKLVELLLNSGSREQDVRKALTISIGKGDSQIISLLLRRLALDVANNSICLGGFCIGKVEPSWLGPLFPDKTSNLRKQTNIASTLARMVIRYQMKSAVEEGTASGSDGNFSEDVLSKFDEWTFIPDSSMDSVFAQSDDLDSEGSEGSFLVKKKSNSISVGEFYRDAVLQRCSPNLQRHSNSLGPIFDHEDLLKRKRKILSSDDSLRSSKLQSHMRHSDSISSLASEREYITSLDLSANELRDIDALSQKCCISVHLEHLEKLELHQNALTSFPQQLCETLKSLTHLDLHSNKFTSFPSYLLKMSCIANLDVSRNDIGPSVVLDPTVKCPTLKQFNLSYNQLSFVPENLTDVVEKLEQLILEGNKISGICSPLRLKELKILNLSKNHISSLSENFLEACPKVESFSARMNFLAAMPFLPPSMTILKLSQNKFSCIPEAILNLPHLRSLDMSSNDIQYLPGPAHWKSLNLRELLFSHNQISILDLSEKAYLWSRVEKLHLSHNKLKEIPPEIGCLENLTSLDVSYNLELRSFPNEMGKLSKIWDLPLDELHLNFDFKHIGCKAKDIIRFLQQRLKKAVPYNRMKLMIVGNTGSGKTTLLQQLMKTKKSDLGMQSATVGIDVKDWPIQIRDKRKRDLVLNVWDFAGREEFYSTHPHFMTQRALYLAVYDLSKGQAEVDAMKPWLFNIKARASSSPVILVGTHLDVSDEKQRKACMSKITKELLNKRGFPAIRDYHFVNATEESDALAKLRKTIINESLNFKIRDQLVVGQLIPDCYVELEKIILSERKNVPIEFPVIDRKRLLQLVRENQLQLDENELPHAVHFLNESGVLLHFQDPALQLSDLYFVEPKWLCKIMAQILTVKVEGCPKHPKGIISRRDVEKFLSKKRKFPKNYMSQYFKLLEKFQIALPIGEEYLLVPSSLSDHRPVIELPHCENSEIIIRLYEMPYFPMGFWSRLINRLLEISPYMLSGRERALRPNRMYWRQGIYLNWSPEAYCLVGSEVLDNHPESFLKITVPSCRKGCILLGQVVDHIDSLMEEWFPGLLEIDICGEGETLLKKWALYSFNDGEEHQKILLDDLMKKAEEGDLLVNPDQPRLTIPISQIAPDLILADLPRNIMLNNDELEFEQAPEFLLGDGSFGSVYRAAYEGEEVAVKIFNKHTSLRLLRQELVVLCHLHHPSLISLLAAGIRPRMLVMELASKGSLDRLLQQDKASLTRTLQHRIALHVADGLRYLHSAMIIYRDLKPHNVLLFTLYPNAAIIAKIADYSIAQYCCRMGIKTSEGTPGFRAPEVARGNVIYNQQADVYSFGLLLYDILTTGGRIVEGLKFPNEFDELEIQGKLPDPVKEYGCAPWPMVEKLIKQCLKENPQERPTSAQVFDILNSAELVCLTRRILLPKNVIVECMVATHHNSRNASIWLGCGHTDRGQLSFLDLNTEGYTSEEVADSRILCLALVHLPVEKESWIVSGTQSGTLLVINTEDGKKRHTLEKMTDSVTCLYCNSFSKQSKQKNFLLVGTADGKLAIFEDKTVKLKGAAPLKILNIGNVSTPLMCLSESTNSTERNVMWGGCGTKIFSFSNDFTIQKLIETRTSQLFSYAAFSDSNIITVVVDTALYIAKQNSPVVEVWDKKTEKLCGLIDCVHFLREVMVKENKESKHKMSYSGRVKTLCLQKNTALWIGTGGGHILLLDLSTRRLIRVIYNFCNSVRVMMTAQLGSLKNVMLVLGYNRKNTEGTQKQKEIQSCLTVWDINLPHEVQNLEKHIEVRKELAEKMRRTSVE
T5 sequence (Q9Y5S2 whole entry): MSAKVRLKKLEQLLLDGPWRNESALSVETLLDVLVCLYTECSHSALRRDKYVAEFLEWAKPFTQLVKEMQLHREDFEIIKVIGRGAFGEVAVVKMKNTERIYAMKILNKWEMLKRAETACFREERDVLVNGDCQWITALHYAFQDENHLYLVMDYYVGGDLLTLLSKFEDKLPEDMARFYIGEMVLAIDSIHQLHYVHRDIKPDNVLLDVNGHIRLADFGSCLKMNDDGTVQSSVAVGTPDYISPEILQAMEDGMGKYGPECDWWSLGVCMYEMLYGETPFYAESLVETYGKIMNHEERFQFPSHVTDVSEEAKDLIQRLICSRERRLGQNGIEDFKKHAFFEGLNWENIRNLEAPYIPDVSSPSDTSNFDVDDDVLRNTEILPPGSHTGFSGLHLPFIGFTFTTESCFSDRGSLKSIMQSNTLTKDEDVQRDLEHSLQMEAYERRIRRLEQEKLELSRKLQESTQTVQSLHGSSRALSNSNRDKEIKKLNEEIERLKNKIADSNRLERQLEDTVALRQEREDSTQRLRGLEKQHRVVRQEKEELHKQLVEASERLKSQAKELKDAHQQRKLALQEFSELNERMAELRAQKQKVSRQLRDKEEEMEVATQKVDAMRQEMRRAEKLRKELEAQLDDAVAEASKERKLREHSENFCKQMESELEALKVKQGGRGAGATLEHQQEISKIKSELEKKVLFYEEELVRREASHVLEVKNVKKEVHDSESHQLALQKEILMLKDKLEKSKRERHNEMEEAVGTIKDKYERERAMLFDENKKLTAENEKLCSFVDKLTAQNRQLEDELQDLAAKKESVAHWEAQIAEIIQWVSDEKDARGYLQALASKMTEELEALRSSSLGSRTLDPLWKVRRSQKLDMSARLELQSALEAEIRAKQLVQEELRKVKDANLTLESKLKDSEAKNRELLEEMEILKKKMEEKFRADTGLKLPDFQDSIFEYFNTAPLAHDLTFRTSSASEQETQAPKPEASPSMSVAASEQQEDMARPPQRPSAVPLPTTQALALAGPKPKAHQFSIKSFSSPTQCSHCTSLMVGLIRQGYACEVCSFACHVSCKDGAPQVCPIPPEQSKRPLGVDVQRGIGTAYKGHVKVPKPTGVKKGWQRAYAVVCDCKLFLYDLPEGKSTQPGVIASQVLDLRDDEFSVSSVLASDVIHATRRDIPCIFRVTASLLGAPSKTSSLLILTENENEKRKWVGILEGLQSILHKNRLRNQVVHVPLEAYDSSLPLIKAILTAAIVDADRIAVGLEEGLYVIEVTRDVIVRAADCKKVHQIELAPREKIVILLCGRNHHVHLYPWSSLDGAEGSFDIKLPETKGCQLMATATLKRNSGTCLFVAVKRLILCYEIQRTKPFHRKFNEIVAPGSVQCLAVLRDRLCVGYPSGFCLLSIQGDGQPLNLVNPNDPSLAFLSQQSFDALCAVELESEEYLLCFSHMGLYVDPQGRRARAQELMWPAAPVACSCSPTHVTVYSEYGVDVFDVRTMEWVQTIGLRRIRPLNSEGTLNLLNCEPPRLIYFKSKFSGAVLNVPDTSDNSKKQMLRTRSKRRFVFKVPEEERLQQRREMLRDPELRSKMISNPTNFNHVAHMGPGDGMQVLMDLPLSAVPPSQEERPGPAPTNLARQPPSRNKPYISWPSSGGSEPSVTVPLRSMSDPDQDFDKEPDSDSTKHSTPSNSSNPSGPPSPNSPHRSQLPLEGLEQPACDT
T6 sequence (Q16539 whole entry): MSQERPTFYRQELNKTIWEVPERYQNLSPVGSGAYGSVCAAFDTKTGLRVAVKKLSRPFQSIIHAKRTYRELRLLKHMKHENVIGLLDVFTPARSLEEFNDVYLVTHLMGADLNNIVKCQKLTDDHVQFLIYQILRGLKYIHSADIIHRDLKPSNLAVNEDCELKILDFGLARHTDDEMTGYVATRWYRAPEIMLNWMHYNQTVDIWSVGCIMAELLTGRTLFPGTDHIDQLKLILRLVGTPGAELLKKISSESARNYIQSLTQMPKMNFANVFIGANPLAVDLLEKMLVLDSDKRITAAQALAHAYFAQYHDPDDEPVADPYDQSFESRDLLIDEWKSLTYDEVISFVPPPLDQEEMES
Chain of CAMKK1 (Q8N5S9 whole entry): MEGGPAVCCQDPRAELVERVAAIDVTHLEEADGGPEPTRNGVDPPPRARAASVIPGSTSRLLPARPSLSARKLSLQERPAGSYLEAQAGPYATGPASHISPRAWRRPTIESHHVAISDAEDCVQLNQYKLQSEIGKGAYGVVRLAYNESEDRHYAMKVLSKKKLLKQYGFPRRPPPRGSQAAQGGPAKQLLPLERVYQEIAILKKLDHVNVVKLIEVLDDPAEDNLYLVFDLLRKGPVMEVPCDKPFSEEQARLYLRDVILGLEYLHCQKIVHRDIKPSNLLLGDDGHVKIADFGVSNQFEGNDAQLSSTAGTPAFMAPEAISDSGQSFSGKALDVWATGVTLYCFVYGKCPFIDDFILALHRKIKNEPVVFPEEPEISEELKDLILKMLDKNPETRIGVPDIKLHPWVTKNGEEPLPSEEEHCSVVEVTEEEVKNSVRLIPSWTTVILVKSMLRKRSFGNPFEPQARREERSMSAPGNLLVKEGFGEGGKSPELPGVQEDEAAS

As to `NC(=O)c1cccc2cn(-c3ccc([C@@H]4CCCNC4)cc3)nc12` [Niraparib], the percent of control binding at 10 µM turned out to be 51% in assay [1] (setting [2]); 88% at CAMKK1 (setting [2]); 77% at DAPK1 (setting [2]); 67% at EGFR (setting [2]); 84% on FLT3-autoinhibited (setting [2]); 99% at IRAK4 (setting [2]). Besides, the percent of control binding at 10 µM was determined as 89% on LRRK2(G2019S) (setting [2]); 94% at MAP4K4 (setting [2]); 67% at MINK (setting [2]); 98% on MRCKB (setting [2]); 70% at STK39 (setting [2]); 95% on p38-alpha (setting [2]).

For the molecule `Cn1ncnc1[C@H]1c2n[nH]c(=O)c3cc(F)cc(c23)N[C@@H]1c1ccc(F)cc1` [Talazoparib], the percent of control binding at 10 µM in assay [1] (setting [3]) worked out at 100%; on CAMKK1 (setting [3]), 97%; on DAPK1 (setting [3]), 89%; on EGFR (setting [3]) it was 85%; on FLT3-autoinhibited (setting [3]), 100%; on IRAK4 (setting [3]), 85%. Moreover, the percent of control binding at 10 µM turned out to be 100% at LRRK2(G2019S) (setting [3]); 100% at MAP4K4 (setting [3]); 100% at MINK (setting [3]); 100% on MRCKB (setting [3]); 100% on STK39 (setting [3]); 83% on p38-alpha (setting [3]).

With `CNCc1ccc(-c2[nH]c3cc(F)cc4c3c2CCNC4=O)cc1` [Rucaparib], the percent of control binding at 10 µM in assay [1] (setting [4]) was 72%; at CAMKK1 (setting [4]), 66%; at DAPK1 (setting [4]), 29%; on EGFR (setting [4]) it was 87%; at IRAK4 (setting [4]), 81%; on LRRK2(G2019S) (setting [4]), 87%. The percent of control binding at 10 µM on MAP4K4 (setting [4]) is 82%; at MINK (setting [4]) it was 29%; on MRCKB (setting [4]), 100%; at STK39 (setting [4]), 73%; at p38-alpha (setting [4]) it was 90%. Also, the “Rucaparib / %Ctrl @ 10000nM” value at FLT3-autoinhibited (binding competition, % of control) is 93%.

Regarding `O=C(c1cc(Cc2n[nH]c(=O)c3ccccc23)ccc1F)N1CCN(C(=O)C2CC2)CC1` [Olaparib], the percent of control binding at 10 µM was 71% in [1] (setting [5]); 88% at CAMKK1 (setting [5]); 87% on DAPK1 (setting [5]); 82% on EGFR (setting [5]); 87% on FLT3-autoinhibited (setting [5]); 88% at IRAK4 (setting [5]). Also, the percent of control binding at 10 µM came out at 84% on LRRK2(G2019S) (setting [5]); 100% at MAP4K4 (setting [5]); 100% on MINK (setting [5]); 100% at MRCKB (setting [5]); 92% at STK39 (setting [5]); 100% at p38-alpha (setting [5]).

Values taken from PMC7026418, “The kinase polypharmacology landscape of clinical PARP inhibitors” (Scientific Reports, 2020).
